Experimental data published in patent publication US20010031751A1, “Pharmaceuticals” (SmithKline Beecham p.l.c., priority 1997, published 2001).

Key:
5-HT4 receptor = target: T1, 5-HT4 receptor (Cavia porcellus, UniProt O70528); assay: 5-HT4 receptor antagonist activity: 5-HT-evoked contractions of guinea-pig distal colon longitudinal muscle-myenteric plexus (LMMP) preparations; conditions: mean ± SEM, n=7, antagonism of 5-HT dose response curve, 45 minutes incubation
T1 construct: Longitudinal muscle-myenteric plexus (LMMP) preparations, 2-3cm long, are obtained from the distal colon region; from tissue; host or cells: guinea-pig distal colon longitudinal muscle-myenteric plexus
T1 sequence (O70528 whole entry): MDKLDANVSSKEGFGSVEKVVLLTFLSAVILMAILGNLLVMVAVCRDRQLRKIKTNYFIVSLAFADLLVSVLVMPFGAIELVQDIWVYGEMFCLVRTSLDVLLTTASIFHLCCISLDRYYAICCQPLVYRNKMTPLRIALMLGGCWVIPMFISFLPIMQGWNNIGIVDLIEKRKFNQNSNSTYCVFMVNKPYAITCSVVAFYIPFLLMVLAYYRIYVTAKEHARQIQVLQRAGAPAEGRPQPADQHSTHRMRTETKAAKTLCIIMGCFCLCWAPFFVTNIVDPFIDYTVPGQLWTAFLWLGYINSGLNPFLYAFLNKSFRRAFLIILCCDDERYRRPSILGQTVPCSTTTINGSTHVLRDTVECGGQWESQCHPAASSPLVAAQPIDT
Procedure: 5-HT4 RECEPTOR ANTAGONIST ACTIVITY
Male Dunkin Hartley guinea-pigs, weighing 200-300 g are used. Longitudinal muscle-myenteric plexus (LMMP) preparations, 2-3cm long, are obtained from the distal colon region. These are suspended under a 0.5 g load in isolated tissue baths containing Krebs Henseleit solution (NaCl 118 mM, KCl 4.7mM KH2PO4 1.2mM MgSO4 7H2O 1.2mM, Glucose 11.1mM, NaHCO3 25mM, CaCl2 6H2O 2.5mM) bubbled with 5% CO2 in O2, maintained at 37° C. and containing 1uM Granisetron and 0.1uM Methiothepin to block 5HT3 and 5HT1-like receptors respectively. 100uM Pargyline is also added to the tissues at the start of the experiment. Tissues are left for 15 minutes to equilibrate and then exposed to 5-HT at 0.1uM every 15 minutes until a uniform response is achieved. Following a half hour period for tissues to stabilise, non-cumulative dose response curves to 5-HT are constructed in all tissues. When base-lines have returned to normal, test compounds are added in the reservoirs of the tissue set-ups and washed in to the tissues. Tissues are incubated with the antagonists for 45 minutes after which a second non-cumulative dose response curve to 5-HT is constructed.
To test for selectivity of action, compounds are tested for their ability to antagonise cholinergically-mediated contractions of the guinea-pig colon, evoked by the nicotinic receptor agonist. […]

[1] = test system: DMPP-evoked contractions of the guinea-pig colon; assay: Selectivity test: cholinergically-mediated contractions of guinea-pig colon evoked by the nicotinic receptor agonist DMPP; conditions: selectivity of action
Procedure: To test for selectivity of action, compounds are tested for their ability to antagonise cholinergically-mediated contractions of the guinea-pig colon, evoked by the nicotinic receptor agonist. DMPP (1,1-dimethyl-4-phenyl-piperazinium iodide). For these experiments, tissues and equipment are set up as for the above, 5HT4 receptor experiments. After sensitization, non-cumulative dose response curves are constructed to DMPP. Test compounds are incubated with the tissues as above, and a second dose response curve to DMPP created. Results are given as mean pKB± SEM values for each antagonists.

CCCCN1CCC(CNC(=O)c2c3n(c4ccccc24)C(O)CCO3)CC1 (racemic) [compound of formula (I), (±)-N-[(1-butyl-4-piperidinyl)methyl]-3,4-dihydro-4-hydroxy-2H-[1,3]oxazino[3,2-a]indole-10-carboxamide]
Kb (5-HT4 receptor): 3.39 nM | effect on DMPP-evoked contractions [1]: did not significantly affect DMPP-evoked contractions
